This series can be described thus: Human microsomal stability assay. The note with it: human liver microsomes 0.5 mg/mL, 37° C., pH 7.4, NADPH regenerating system, 0-30 minutes. Format: in vitro ADME. The protocol: Human Microsomal Stability Assay
Human liver microsomes (Cat. NO.: 452117, Corning, USA) were preincubated with test compound for 10 minutes at 37° C. in 100 mM potassium phosphate buffer, pH 7.4. The reactions were initiated by adding NADPH regenerating system. The final incubation mixtures contained […] test compound, 0.5 mg/mL liver microsomal protein, 1 mM MgCl2, 1 mM NADP, 1 unit/mL isocitric dehydrogenase and 6 mM isocitric acid in 100 mM potassium phosphate buffer, pH 7.4. After incubation times of 0, 3, 6, 9, 15 and 30 minutes at 37° C., 300 μL of cold ACN (including internal standard) was added to 100 μL incubation mixture to terminate the reaction. Following precipitation and centrifugation, 100 μL supernatant will be taken out and added 300 uL water. The amount of compound remaining in the samples was determined by LC-MS/MS. Controls of no NADPH regenerating system at zero and 30 minutes were also prepared and analyzed. The results were categorized as: low (<7.0 mLJmin/kg), medium (7.0-16.2 mL/min/kg) and high (16.2-23.2 mLJmin/kg).

These results are taken from patent US12157746B2, “Tetrahydro-1H-pyrazino[2,1-a]isoindolylquinoline compounds for the treatment of autoimmune disease” (F. HOFFMANN-LA ROCHE AG, priority 2018, dated 2024).

Molecules are shown by their SMILES.

With `C[C@@H]1CN(c2ccc(C#N)c3ncccc23)C[C@@H]2c3ccc(OC4CNC4)cc3CN12` [Example 27, 5-[(4R,10bS)-8-(azetidin-3-yloxy)-4-methyl-3,4,6,10b-tetrahydro-1H-pyrazino[2,1-a]isoindol-2-yl]quinoline-8-carbonitrile], the “CL (h)” value worked out at 7.7 mL/min/kg.

For the compound `C[C@@H]1CN(c2ccc(C#N)c3ncccc23)C[C@@H]2c3ccc(C(=O)N4C[C@@H]5C[C@H]4CN5)cc3CN12` [Example 87, 5-[(4R,10bS)-8-[(1S,4S)-2,5-diazabicyclo[2.2.1]heptane-2-carbonyl]-4-methyl-3,4,6,10b-tetrahydro-1H-pyrazino[2,1-a]isoindol-2-yl]quinoline-8-carbonitrile], the “CL (h)” value came out at 8.0 mL/min/kg. In the case of `C[C@@H]1CN(c2ccc(C#N)n3nccc23)C[C@@H]2c3ccc(N4CCC(C)(N)CC4)cc3CN12` [Example 100, 4-[(4R,10bS)-8-(4-amino-4-methyl-1-piperidyl)-4-methyl-3,4,6,10b-tetrahydro-1H-pyrazino[2,1-a]isoindol-2-yl]pyrazolo[1,5-a]pyridine-7-carbonitrile] it was 8.0 mL/min/kg; in that of `C[C@@H]1CN(c2ccc(C#N)c3ncccc23)C[C@@H]2c3ccc(C(=O)N4CCNCC4)cc3CN12` [Example 86, 5-[(4R,10bS)-4-methyl-8-(piperazine-1-carbonyl)-3,4,6,10b-tetrahydro-1H-pyrazino[2,1-a]isoindol-2-yl]quinoline-8-carbonitrile], 7.7 mL/min/kg.
